Literature values, collected in patent US20050084461A1, “Tooth enamel rejuvenating toothpaste” (priority 2003, published 2005).

Settings: pH of about 7.0, temperature of about 25° C.

## O.O.O=P([O-])([O-])O.[Ca+2] [dicalcium phosphate dihydrate]
  calcium cations released in aqueous solution: about 40 ppm
